Data on 6 molecules can be found in patent publication US20260263485A1, “AMINOSTEROL COMPOUNDS, AMINOSTEROL-CYCLODEXTRIN FORMULATIONS, AND METHODS OF USING THE SAME” (Enterin, Inc., priority 2022, published 2026).

The subject of data set [1] is PTP1B. To be noted: in vitro, bank of commercially available phosphatases; cited from earlier work.
Data set [2] can be described thus: Plasma pharmacokinetics of ENT-03S cyclodextrin formulation after subcutaneous injection. It is filed as in vivo, rat. The note with it: Sprague-Dawley, rat; 20% beta-cyclodextrin formulation; SC Dose 10 mg/kg; male SD rats; plasma; mean; read-out: Tmax Mean. The method, then:
In this example, ENT-03S was formulated with unmodified beta-cyclodextrin at a concentration of 25 mg/ml ENT-03, and 20% beta-cyclodextrin, pH 7.5, buffered with phosphate.
Male Sprague-Dawley rats were administered the ENT-03-cyclodextrin formulation subcutaneous at a dose of 10 mg/kg. Blood samples were drawn from the tail vein at various times, the concentrations of ENT-03 determined, and PK parameters determined.

For data set [3] the following is noted: cited from earlier work.
The nature of data set [4]: Identification of metabolites of ENT-03S in rat plasma and urine samples (UPLC-MS/MS). It is filed as in vivo. The method, then:
An equal number of rat urine (50 μL) were taken from different animals at various time points following administration of ENT-03S. For plasma samples, the Hamilton pooling method was used.
Study design: An equal number of rat urine (50 μL) samples were taken from different animals at various time points from study No.: PH-DMPK-ETR-21-001 following administration of ENT-03S. For plasma samples, the Hamilton pooling method was used.
The samples were then analysed using UPLC-MS/MS.
Compound dependent parameters were optimized by ENT-03S.

A short description of data set [5]: Identification of metabolites of ENT-03S in rat bile samples (UPLC-MS/MS). To be noted: bile duct cannulated male SD rats, 10 mg/kg ENT-03S SC; for Metabolite peak area percentages Rat Bile: pooled bile 0-24 h, relative XIC peak area; for Metabolite peak area Rat Bile: pooled bile, XIC peak area.
Method: An equal volume of rat bile samples (50 μL) were taken from different animals at different time points following administration of ENT-03S. 50 μL of matrix was mixed with 200 μL of methanol (containing 0.1% formic acid), vortexed for 100 seconds and then centrifuged at 16,000 g for 10 minutes at 4° C. to precipitate proteins. 100 μL of the supernatant was transferred to a new tube and the supernatant diluted with 100 μt, pure water, mixed well and analyzed using UPLC-MS/MS.
The peak area percentages of parent drug and each metabolite were determined by semi-quantitative estimation using the extracted ion chromatogram peak areas of all detected drug-related material in the sample. Metabolites with percentage of peak area>10% are proposed as major metabolites of ENT-03S.
Bile samples were obtained from male rats at various time points following a 10 mg/kg dose of ENT-03S via subcutaneous administration in bile dicut cannulated male SD rats as detailed in Table 10. The samples were transferred on dry ice and stored at −80° C. prior to use
Study design: An equal volume of rat bile samples (50 μL) were taken from different animals at different time points following administration of ENT-03S in study No.: PII-DMPK-ETR-21-001. 50 μL of matrix was mixed with 200 μL of methanol (containing 0.1% formic acid), vortexed for 100 seconds and then centrifuged at 16,000 g for 10 minutes at 4° C. to precipitate proteins. 100 μL of the supernatant was transferred to a new tube and the supernatant diluted with 100 μL pure water, mixed well and analyzed using UPLC-MS/MS.
Sample preparation: For bile samples, an equal volume of samples (50 μL) are taken from different animals at various time points after the administration of each group of samples, and the same group of samples are mixed thoroughly.
Data Analysis: UPLC-MS/MS was used for sample analysis, and was conducted using a DionexUltiMate 3000/Vanquish UHPLC system. For mass spectrometry (MS), all analysis was carried out with a Q-Exactive instrument (Thermo Fisher). A full MS scan was used to trigger the data dependent acquisition (DDA) of MS/MS scan spectra. Compound dependent parameters were optimized by ENT-03S. DDA settings were used to trigger acquisition of MS^2 spectra for ions whose intensity is in top 5 of all, with exclusion of impurity ions (m/z 149.02332, m/z 279.15909, m/z 391.28429 and m/z 445.12003), after 3 occurrences for 10 s. Dynamic exclusion settings: automatic exclusion of the ions which have been taken.
Data Analysis: The analysis was carried out using a thermo Fisher Scientific Q Exactive instrument. Full MS scan was used to trigger the data dependent acquisition (DDA) of MS/MS scan spectra. Compound dependent parameters were optimized by ENT-03S. DDA settings were used to trigger acquisition of MS^2 spectra for ions whose intensity was in the top 5 of all, with exclusion of ions (m/z 149.02332, m/z 279 1 5909, m/z 391.28429 and m/z 445 12003), after 3 occurrences for 10 s. Data was acquired and processed using Xcalibur v4.1 software (Thermo Fisher Scientific) and Compound Discoverer 3.1 (Thermo Fisher Scientific) and Excel (Microsoft 2016).

SMILES strings stand for the structures.

One may read the Tmax as the time from dosing to the highest level. For the molecule `CC(CCC[C@@H](C)[C@H]1CCC2C3C(CC[C@@]21C)[C@@]1(C)CC[C@H](NCCCNCCCCNCCCN)C[C@@H]1C[C@H]3O)C(=O)O` (single isomer, unassigned) [ENT-03], the “inhibition of PTP1B relative to the other phosphatases assayed” value in data set [1] is “most potently inhibited”. The Tmax in data set [2] was determined as 2 h. In data set [3] (in vivo), the hepatic steatosis entry was “reduces hepatic steatosis” and the insulin sensitivity entry is on record as “acutely increases insulin sensitivity”. Further, the “food intake and body weight” value in data set [3] (peripheral and central administration to lean rodents) was “prolonged reduction in food intake and body weight”.

`C[C@H](CCC(=O)O)[C@H]1CCC2C3C(CC[C@@]21C)[C@@]1(C)CC[C@H](NCCCNCCCCNCCCN)C[C@@H]1C[C@H]3O` (single isomer, unassigned) [ENT-17]: the “Metabolite peak area percentages Rat Plasma Male” value in data set [4] (pooled male SD rat plasma 0.25-24 h after 10 mg/kg ENT-03S SC, relative XIC peak area) was determined as 0.55%. Further, the “Metabolite peak area Rat Plasma Male” value in data set [4] (pooled male SD rat plasma after 10 mg/kg ENT-03S SC, XIC peak area) stood at 3.62E+06. In addition, the “Metabolite peak area percentages Rat Urine Male” value in data set [4] (pooled male SD rat urine 0-24 h after 10 mg/kg ENT-03S SC, relative XIC peak area, “—”: not observed) was 7.56%. For the same molecule, the “Metabolite peak area Rat Urine Male” value in data set [4] (pooled male SD rat urine after 10 mg/kg ENT-03S SC, XIC peak area, “—”: not observed) is 1.70E+05.

With `C[C@H](CCC[C@H](C)C(=O)O)[C@H]1CCC2C3C(CC[C@@]21C)[C@@]1(C)CC[C@H](NCCCNCCCCNCCC(=O)O)C[C@@H]1C[C@H]3O` (stereo partly drawn) [ENT-25S], in data set [5], the “Metabolite peak area percentages Rat Bile” value worked out at 9.52% and the “Metabolite peak area Rat Bile” value was determined as 1.17E+07.

In the case of `C[C@H](CCC(=O)NCCS(=O)(=O)O)[C@H]1CCC2C3C(CC[C@@]21C)[C@@]1(C)CC[C@H](NCCC(=O)O)C[C@@H]1C[C@H]3O` (some centres unmarked) [M3-RB], in data set [5], the “Metabolite peak area percentages Rat Bile” value worked out at 2.27% and the “Metabolite peak area Rat Bile” value worked out at 2.80E+06.

On to `C[C@H](CCC[C@H](C)C(=O)O)[C@H]1CCC2C3C(CC[C@@]21C)[C@@]1(C)CC[C@H](NCCCNCCCC(=O)O)C[C@@H]1C[C@H]3O` (some centres unmarked) [M10-PU/M14-RB], for which, in data set [5], the “Metabolite peak area percentages Rat Bile” value is listed as 3.23% and the “Metabolite peak area Rat Bile” value came to 3.98E+06.

As to `C[C@H](C[C@H](C)C(=O)O)[C@H]1CCC2C3C(CC[C@@]21C)[C@@]1(C)CC[C@H](NCCC(=O)O)C[C@@H]1C[C@H]3O` (some centres unmarked) [M16-RB], in data set [5], the “Metabolite peak area percentages Rat Bile” value is on record as 0.69% and the “Metabolite peak area Rat Bile” value is 8.45E+05.
